Earlier results in patent publication US20260232577A1, “A MACROLIDE FOR USE IN A METHOD OF PREVENTING OR TREATING AN IMMUNOLOGICAL DISEASE OR DISORDER” (Nucleus Medical GmbH, priority 2023, published 2026).

C=CC[C@@H]1/C=C(\C)C[C@H](C)C[C@H](OC)[C@H]2O[C@@](O)(C(=O)C(=O)N3CCCC[C@H]3C(=O)O[C@H](/C(C)=C/[C@@H]3CC[C@@H](O)[C@H](OC)C3)[C@H](C)[C@@H](O)CC1=O)[C@H](C)C[C@@H]2OC [tacrolimus]
bioavailability variability (after oral administration, international literature): 4-90%
blood level fluctuations, variation range (after oral application, internationally described): more than 80%
oral bioavailability on average (limited by presystemic metabolism in the GI tract): ~ 25%
